Reference: patent US7705050B2, “Amides, useful in the inhibition of IL-8-induced chemotaxis of neutrophils” (priority 2000, dated 2010)

Columns and labels:
[1] = system: human PMNs stimulated by IL-8; assay: Chemotaxis of human PMNs stimulated by IL-8 (48-well microchamber); format: cell-based; conditions: for activity on chemotaxis induced by IL-8, in words: Tables 1 and 2; for % inhibition of leucocyte chemotaxis: Table 3, diastereoisomers of ibuprophenoyl-alanine
Protocol: For in vitro evaluation of the compounds of the invention, polymorphonucleated leucocytes were used (hereinafter referred to as PMNs) isolated from heparinized human blood, taken from consenting healthy adults, by means of sedimentation on dextrane; the mononucleated cells were removed by means of Ficoll/Hypaque, whilst the red blood cells were eliminated by treatment with hypotonic solutions. The cell vitality of the PMNs was calculated by exclusion with Tripan blue, whilst the percentage of PMNs on the cytocentrifugate was estimated after staining with Diff Quinck., in accordance with the procedure described by W. J. Ming et al., J. Immunol., 138, 1469, 1987. In each of the experiments, which will be described in details below, the pre-incubations were carried out at a temperature of 37° C., observing incubation times of 10 minutes with the compounds under examination.
In the chemotaxis experiments and in those aimed at measuring the cytosol levels of the Ca^++ ion, recombinant human interleukin-8 (rhIL-8, Pepro Tech) was used; the lyophilized protein was dissolved in HBSS (Hank's balanced salts solution) at the concentration of 100 mcg/mL, and then diluted down to a concentration of 10 ng/mL in the chemotaxis experiments, to that a concentration of 25-50 ng/mL in the evaluation of the intracellular modifications of Ca^2+ (i.e. [Ca^2+]i) and to that a concentration of 400 ng/ml in the evaluation of tyrosine kinase activation.
During the chemotaxis assay (according to W. Falket et al., J. Immunol. Methods, 33, 239, 1980) PVP-free filters were used having a porosity of 5 mcm and microchambers made of plexiglas suitable for carrying out the replication.
The compounds being studied were added at one and the same concentration in the top-level wells that contained the suspension of PMNs, and in the wells of the bottom level that contained the vehicle to which IL-8 (or, if so desired, another stimulating agent) was added or otherwise.

TNF-α [2] = assay: TNF-α production in murine macrophages stimulated by LPS or H2O2; format: cell-based; conditions: stimulated in murine macrophages by H2O2 and by liposaccharides
PGE2 = PGE2 synthesis in murine macrophages stimulated with lipopolysaccharides; format: cell-based; conditions: after stimulation with LPSs at 1 μg/mL
TNF-α [3] = conditions: in the presence of LPSs and of S-ketoprofen 10^−5 M; LPSs alone 10±5 ng/mL; cited from earlier work
[4] = Table 1, compound conc. 10^−8 M, IL-8 10 ng/mL
[5] = Table 2, compounds 10^−8 M, IL-8 10 ng/mL

Question: Which results are given for `CC(C)Cc1ccc([C@H](C)C(N)=O)cc1` [(S)-2-(4-isobutyl-phenyl)-propionamide, reference compound]?
Answer: % inhibition of chemotaxis of human PMNs stimulated by IL-8 (10 ng/mL) [1, 4]: −2 ± 8%; activity on chemotaxis induced by IL-8, in words [1]: altogether absent

Question: Which “% inhibition of chemotaxis of human PMNs stimulated by IL-8 (10 ng/mL)” value (shortened to “% inhibition of chemotaxis … (10 ng/mL)”) [1, 4] does the source give for `CC(C)Cc1ccc([C@@H](C)C(N)=O)cc1` [Compound 1, (R)-2-(4-isobutyl-phenyl)-propionamide, reference compound] here?
Answer: Its value is 57 ± 12%.

Question: And the “% inhibition of chemotaxis … (10 ng/mL)” value [1, 5]?
Answer: Its value is 57 ± 12%.

Question: What about the “activity on chemotaxis induced by IL-8, in words” value (shortened to “activity on chemotaxis induced”) [1] of the same molecule?
Answer: Its value is “active”.

Question: For `CNC(=O)[C@H](C)c1ccc(CC(C)C)cc1` [Compound 2, R(−)-2-(4′-isobutyl)phenyl-N-methyl propionamide], which “production of TNF-α” value (TNF-α [2]) is on record?
Answer: Its value is “down-regulate the production of TNF-α”.

Question: And the “% inhibition of chemotaxis … (10 ng/mL)” value [1, 5]?
Answer: The value was 25 ± 9%.

Question: And the “% inhibition of leucocyte chemotaxis stimulated by IL-8 (10 ng/mL)” value ([1]; concentration of 10^−8 M)?
Answer: Its value is 25±9%.

Question: What about the “synthesis of PGE2 in the macrophages” value (PGE2) of the same molecule?
Answer: The value was “do not inhibit”.

Question: Which “% inhibition of chemotaxis … (10 ng/mL)” value [1, 5] does the source give for `CC(C)Cc1ccc([C@@H](C)C(=O)NCCO)cc1` [Compound 3, R(−)-2-(4′-isobutyl)phenyl-N-(2′-hydroxyethyl)propionamide] here?
Answer: Its value is 20 ± 11%.

Question: And the “activity on chemotaxis induced” value [1]?
Answer: The value was “decrease in the biological activity”.

Question: For `CC(C)Cc1ccc([C@@H](C)C(=O)NCC(=O)O)cc1` [Compound 4, R(−)-2-[(4′-isobutyl)phenyl]-N-carboxymethyl propionamide], which “% inhibition of chemotaxis … (10 ng/mL)” value [1, 5] is on record?
Answer: Its value is 45 ± 8%.

Question: What about the “activity on chemotaxis induced” value [1] of the same molecule?
Answer: The value was “inhibitory effect on chemotaxis”.

Question: What does the source list for `CC(C)Cc1ccc([C@@H](C)C(=O)N[C@@H](C)C(=O)O)cc1` [Compound 5]?
Answer: inhibition of chemotaxis induced by IL-8, dose dependence ([1]; IL-8 10 ng/mL, concentration range from 10^−8 to 10^−10 M): inhibits, in a dose-dependent way; % inhibition of chemotaxis of human PMNs stimulated by IL-8 (10 ng/mL) [1, 5]: 65 ± 9%; % inhibition of leucocyte chemotaxis [1]: 65 ± 9%; activity on chemotaxis induced by IL-8, in words [1]: marked “pro-kinetic” paradox effect

Question: Which “% inhibition of chemotaxis … (10 ng/mL)” value [1, 5] does the source give for `CC(C)Cc1ccc([C@@H](C)C(=O)N[C@H](C)C(=O)O)cc1` [Compound 6, (R,R′)-2-[(4′-isobutyl)phenyl]-N-(2″-carboxyethyl)propionamide] here?
Answer: The value was −17 ± 6%.

Question: And the “% inhibition of leucocyte chemotaxis” value [1]?
Answer: Its value is −17 ± 6%.

Question: What about the “activity on chemotaxis induced” value [1] of the same molecule?
Answer: Its value is “inhibitory effect on chemotaxis”.

Question: Which results are given for `CC(C)Cc1ccc([C@@H](C)C(=O)N[C@@H](CO)C(=O)O)cc1` [Compound 7]?
Answer: % inhibition of chemotaxis of human PMNs stimulated by IL-8 (10 ng/mL) [1, 5]: 12 ± 4%; activity on chemotaxis induced by IL-8, in words [1]: decrease in the biological activity

Question: What does the source list for `CC(C)Cc1ccc([C@@H](C)C(=O)NCCOCCO)cc1` [Compound 8, R(−)-2-[(4′-isobutyl)phenyl]-N-(2″-hydroxyethoxyethyl)propionamide]?
Answer: % inhibition of chemotaxis of human PMNs stimulated by IL-8 (10 ng/mL) [1, 5]: 40 ± 4%; activity on chemotaxis induced by IL-8, in words [1]: restored

Question: Which “% inhibition of chemotaxis … (10 ng/mL)” value [1, 5] does the source give for `CC(C)Cc1ccc([C@@H](C)C(=O)Nc2ccccc2)cc1` [Compound 9, R(−)-2-(4′-isobutyl)phenyl-N-phenyl propionamide] here?
Answer: The value was 9 ± 10%.

Question: And the “activity on chemotaxis induced” value [1]?
Answer: The value was “poor activity”.

Question: Which “% inhibition of chemotaxis … (10 ng/mL)” value [1, 5] does the source give for `CC(C)Cc1ccc([C@@H](C)C(=O)Nc2ccccn2)cc1` [Compound 10, R(−)-2-(4′-isobutyl)phenyl-N-(2′-pyridyl)propionamide] here?
Answer: The value was 36 ± 6%.

Question: What about the “activity on chemotaxis induced” value [1] of the same molecule?
Answer: The value was “good activity”.

Question: For `CC(C)Cc1ccc([C@@H](C)C(=O)Nc2cccnc2)cc1` [Compound 11, R(−)-2-[(4′-isobutyl)phenyl]-N-(3″-pyridyl)propionamide], which “% inhibition of chemotaxis … (10 ng/mL)” value [1, 5] is on record?
Answer: The value was 11 ± 10%.

Question: What about the “activity on chemotaxis induced” value [1] of the same molecule?
Answer: Its value is “poor activity”.

Question: For `CC(C)Cc1ccc([C@@H](C)C(=O)Nc2ccncc2)cc1` [Compound 12], which “% inhibition of chemotaxis … (10 ng/mL)” value [1, 5] is on record?
Answer: The value was 61 ± 8%.

Question: And the “activity on chemotaxis induced” value [1]?
Answer: The value was “good activity”.

Question: With `Cc1ccnc(NC(=O)[C@H](C)c2ccc(CC(C)C)cc2)c1` [R(−)-2-[(4′-isobutyl)phenyl]-N-(4″-methyl-2″-pyridyl)propionamide, reference compound] as the molecule, how does the “% inhibition of chemotaxis … (10 ng/mL)” value ([1]; Table 4, IL-8 10 ng/mL) read?
Answer: Its value is −12 ± 2%.

Question: With `Cc1ccnc(NC(=O)[C@H](C)c2cccc(C(=O)c3ccccc3)c2)c1` [R(−)-2-[(5′-benzoyl)phenyl]-N-(4″methyl-2″-pyridyl)propionamide, reference compound] as the molecule, how does the “% inhibition of chemotaxis … (10 ng/mL)” value ([1]; Table 4, IL-8 10 ng/mL) read?
Answer: Its value is −15 ± 25%.

Question: With `Cc1ccnc(NC(=O)[C@@H](C)c2ccc(CC(C)C)cc2)c1` [S(+)-2-[(4′-isobutyl)phenyl]-N-(4″-methyl-2″-pyridyl)propionamide, reference compound] as the molecule, how does the “% inhibition of chemotaxis … (10 ng/mL)” value ([1]; Table 4, IL-8 10 ng/mL) read?
Answer: The value was −3 ± 5%.

Question: Which “% inhibition of chemotaxis … (10 ng/mL)” value ([1]; Table 4, IL-8 10 ng/mL) does the source give for `Cc1ccnc(NC(=O)[C@@H](C)c2cccc(C(=O)c3ccccc3)c2)c1` [S(+)-2-[(5′-benzoyl)phenyl]-N-(4″-methyl-2″-pyridyl)propionamide, reference compound] here?
Answer: The value was −1 ± 10%.

Question: For `CC(C)Cc1ccc([C@H](C)C(=O)N[C@H](C)C(=O)O)cc1` [S,D, reference compound], which “% inhibition of leucocyte chemotaxis” value [1] is on record?
Answer: The value was 4 ± 19%.

Question: With `CC(C)Cc1ccc([C@H](C)C(=O)N[C@@H](C)C(=O)O)cc1` [S,L, reference compound] as the molecule, how does the “% inhibition of leucocyte chemotaxis” value [1] read?
Answer: Its value is 4 ± 13%.

Question: With `C[C@H](C(=O)O)c1cccc(C(=O)c2ccccc2)c1` [S-ketoprofen] as the molecule, how does the “TNF-α in the incubation medium” value (TNF-α [3]) read?
Answer: Its value is 39 ± 5 ng/mL.
